Assay results published in paper PMC10818546, “CYP1-Activation and Anticancer Properties of Synthetic Methoxylated Resveratrol Analogues” (Molecules, 2024).
Read-outs that look alike come from different tables or passages of the source.

Tests used:
MCF7 (TCDD) = test: MTT cytotoxicity assay, TCDD-induced MCF7 cells; type: cell-based, human; settings: for AF = activation factor = IC50 MCF7/MCF7 (TCDD): ratio of IC50 values
Description: (§1) The antiproliferative activity of the resveratrol analogues was investigated using a human breast cell line panel, which has been characterised for CYP1 expression in our laboratories. IC50 values for both cis- and trans-isomers were determined using a standard 3-[4,5-dimethylthiazol-2-yl]-2,5-diphenyl tetrazolium bromide (MTT) cell viability assay and are shown in Table 1 (trans-stilbene analogues) and Table 2 (cis-stilbene analogues).
(§2) MCF7 cells are both ER positive and Ah receptor positive and have been well documented for their CYP1 expression, and it is known that treatment with TCDD elevates CYP1A1 and CYP1B1 expression. The cells were treated with DMSO (0.1%) for 24 h for constitutive expression, whereas for inducible CYP1 expression, the cells were treated with TCDD (10 nM) for 24 h.
(§3) A standard MTT (3-[4,5-dimethylthiazol-2-yl]-2,5-diphenyl tetrazolium bromide) cell viability assay was employed to evaluate the cytotoxicity of the stilbenes prepared. The MTT assay is a rapid quantitative spectrophotometric method for determining cell growth (viability) due to necrosis or apoptosis in monolayer-cultured cell lines in response to external factors. It is widely employed to evaluate the cytotoxicity of potential medicinal agents.
(§4) MCF7 cells were grown in RPMI-1640 medium with phenol red and 10% (v/v) heat-inactivated (heated to 56 °C for 45 min) foetal calf serum. MDA-468 cells were grown in RPMI-1640 medium with 10% (v/v) heat-inactivated foetal calf serum and L-glutamine (2 mM) without phenol red. MCF-10A cells were grown in Dulbecco’s modified Eagle’s medium/ Ham’s F-12 medium (1:1) with 5% (v/v) heat-inactivated foetal calf serum, epidermal growth factor (20 ng/mL), insulin ([…]) and hydrocortisone (500 ng/mL). Cells were maintained at 37 °C, 5% CO2/95% air with 100% humidity and passaged every 2–3 days using trypsin EDTA solution (0.25% w/v). Adhered cells at sub confluence were harvested for experimental use.
(§5) Aliquots of cell suspensions (100 µL at 2 × 10^3 cells per ml) were dispensed into sterile 96-well microtiter flat-bottomed plates. For the MDA468 and MCF10A cell lines, the plates were incubated at 37 °C, 5% CO2/95% air with 100% humidity for 24 h prior to the addition of test compounds. For MCF7 cells, after allowing approximately 4 h for cells to adhere, 100 µL of medium containing TCDD (from 100 mM stock in DMSO) or medium with 0.2% (v/v) DMSO was added to give a final concentration of 10 nM TCDD and 0.1% (v/v) DMSO. After 24 h, the medium was aspirated and replaced with fresh medium (100 µL) before the addition of test compounds.
(§6) Then, 100 µL aliquots of test compounds were added within 30 min into the wells from a 100 mM stock solution in DMSO and serially diluted to give final concentrations of […], 0.01, 0.003, 0.001 and 0.0003 µM. […] The cells were allowed to grow for 96 h at 5% CO2, 37 °C, to give 80–90% confluence in the control wells, after which 50 µL of 2 mg/mL MTT (final concentration 0.4 mg/mL) in sterile phosphate buffer was added to each well and the plates were further incubated for 2 h. All medium was aspirated and the formazan precipitate generated by viable cells was solubilised by 150 µL of DMSO. All the plates were vortexed and the absorbance at 540 nm was determined using a SpectraMax M5 plate reader (Molecular Devices, Wokingham, UK).
(§7) Results were expressed as a percentage of the control value versus the negative logarithm of the molar drug concentration range using GraphPad Prism (Version 5.00). Relative toxicities of each compound within each cell line were expressed as 50% of growth inhibition (IC50). All determinations were carried out in quadruplicate.

MDA468 = test: MTT cytotoxicity assay, MDA468 cells; type: cell-based, human; settings: for IC50: Homo sapiens, read-out: IC50 MDA468; for TS = tumour selectivity = IC50 MCF10A/IC50 MDA468: ratio of IC50 values
Description: as §1
MDA468 cells represent an aggressive multi-drug-resistant tumour type and are ER negative but are aryl hydrocarbon (Ah) receptor positive in the presence of TCDD [46].
as §3, §4, §5, §6, §7

MCF7 = test: MTT cytotoxicity assay, MCF7 cells (uninduced); type: cell-based, human; settings: read-out: IC50 MCF7
Description: as §1, §2, §3, §4, §5, §6, §7

MCF10A = test: MTT cytotoxicity assay, MCF10A non-tumour control cells; type: cell-based; settings: Homo sapiens, MCF-10A, read-out: IC50 MCF10A
Description: as §1
MCF10A cells are non-tumourigenic human mammary epithelial in origin which have been spontaneously immortalised without chemical intervention. CYP1 activity in MCF10A cells is negligible. […] Thus, MCF10A cell line is commonly used as a control in cytotoxicity assays.
as §3, §4, §5, §6, §7

[1] = Homo sapiens, MCF7, MTT assay, 96 h incubation, cells induced with 10 nM TCDD for 24 h, read-out: IC50 MCF7 (TCDD)
[2] = Homo sapiens, MCF7, 96 h, MTT assay, 96 h incubation, 37 °C, means of quadruplicate
[3] = 96 h, MTT assay, 96 h incubation, non-tumour control cells
[4] = Homo sapiens, MCF7, MTT assay, 96 h incubation, 37 °C, means of quadruplicate
[5] = MTT assay, 96 h incubation, non-tumour control cells

| SMILES | IC50 (MCF7 (TCDD); [1]) | IC50 (MDA468; MTT assay, 96 h incubation) | TS = tumour selectivity = IC50 MCF10A/IC50 MDA468 (MDA468) | IC50 (MCF7; [2]) | IC50 (MCF10A; [3]) | IC50 (MCF7; [4]) | IC50 (MCF10A; [5]) | other results |
| --- | --- | --- | --- | --- | --- | --- | --- | --- |
| COc1ccc(/C=C\c2cc(OC)c(OC)c(OC)c2)cc1O [CA4, combretastatin A4, reference compound] | 0.002 µM | 0.003 µM | 0.7 | 0.002 µM | 0.002 µM | – | – | – |
| COc1ccc(/C=C/c2ccc(OC)cc2)cc1 [DMU205] | 28 µM | 100 µM | 1 | 28 µM | 100 µM | – | – | – |
| COc1ccc(/C=C\c2cc(OC)cc(OC)c2)cc1 [DMU210] | 24 µM | > 100 µM | – | – | – | 26 µM | > 100 µM | – |
| COc1ccc(/C=C\c2cc(OC)c(OC)c(OC)c2)cc1 [DMU213] | – | – | four | – | – | – | – | IC50 (MCF7 (TCDD); Homo sapiens, MCF7, read-out: IC50 MCF7 (TCDD)): 0.44 µM; fold less toxic to MDA-468 compared to DMU212 (MDA468): 500 fold; IC50 (MDA468; 96 h): 0.5 µM; TS = tumour selectivity = IC50 MCF10A/IC50 MDA468 (MDA468; listed as 213): 4; IC50 (MCF7; Homo sapiens, MCF7, 96 h): 2.5 µM; IC50 (MCF10A; 96 h): 2 µM |
| COc1ccc(/C=C\c2cccc(C)c2)cc1 [DMU216C] | 30 µM | > 100 µM | – | 26 µM | > 100 µM | – | – | – |
| COc1ccc(/C=C/c2cc(OC)c(OC)c(OC)c2)c(OC)c1 [DMU219] | 1.4 µM | 0.8 µM | 2 | 1.7 µM | 1.4 µM | – | – | – |
| COc1cc(/C=C/c2ccc3c(c2)OCO3)cc(OC)c1OC [DMU220] | 2.3 µM | 0.99 µM | four | – | – | 3.4 µM | 3.9 µM | TS = tumour selectivity = IC50 MCF10A/IC50 MDA468 (MDA468; listed as 220): 4 |
| COc1ccc(/C=C\c2cc(OC)c(OC)c(OC)c2)c(OC)c1 [DMU222] | 0.005 µM | 0.005 µM | 10 | 0.06 µM | 0.06 µM | – | – | IC50 (MCF7 (TCDD); MTT assay, 96 h incubation, cells induced with 10 nM TCDD for 24 h, read-out: IC50 MCF7 (TCDD)): 0.007 µM; IC50 (MCF7; MTT assay, 96 h incubation, 37 °C, means of quadruplicate): 0.07 µM |
| COc1ccc(CCc2cc(OC)c(OC)c(OC)c2)cc1 [DMU224] | 0.06 µM | 0.005 µM | – | 0.06 µM | 0.06 µM | – | – | – |
| COc1ccc(/C=C\c2cccc(OC)c2)cc1 [DMU241C] | 26 µM | > 100 µM | – | – | – | 29 µM | > 100 µM | – |
| COc1ccc(/C=C/c2cccc(OC)c2)cc1 [DMU241] | 24 µM | > 100 µM | – | – | – | 27 µM | > 100 µM | – |
| CCOc1ccc(/C=C/c2cc(OC)c(OC)c(OC)c2)cc1 [DMU260] | 5 µM | 1.8 µM | two | – | – | 5 µM | 3.7 µM | AF = activation factor = IC50 MCF7/MCF7 (TCDD) (MCF7 (TCDD)): one; TS = tumour selectivity = IC50 MCF10A/IC50 MDA468 (MDA468; listed as 260): 2 |
| CCOc1ccc(/C=C\c2cc(OC)c(OC)c(OC)c2)cc1 [DMU261] | 0.13 µM | 0.07 µM | 0.9 | – | – | 0.04 µM | 0.06 µM | – |
| COc1ccc(/C=C\c2ccc(OC)cc2)cc1 [DMU265] | 20 µM | > 100 µM | – | 25 µM | > 100 µM | – | – | – |
| COc1ccc(/C=C/c2cc(OC)cc(OC)c2)cc1 [DMU271] | 14 µM | > 100 µM | – | – | – | 14 µM | > 100 µM | – |
| COc1cc(/C=C/c2ccc(O)cc2)cc(OC)c1OC [DMU281] | 28 µM | 3.6 µM | 6 | 30 µM | 23 µM | – | – | – |
| COc1ccc(/C=C/c2cc(OC)c(O)c(OC)c2)cc1 [DMU291] | 20 µM | 1 µM | 100 | 20 µM | 100 µM | – | – | – |
| COc1ccc(/C=C/c2cc(OC)c(O)c(OC)c2)cc1O [DMU293] | 100 µM | 10 µM | 10 | 100 µM | 110 µM | – | – | – |
| COc1cc(/C=C/c2ccc(O)cc2)cc(OC)c1O [DMU295] | 4.2 µM | 5.1 µM | 10 | 50 µM | 51 µM | – | – | – |
| COc1cc(/C=C\c2ccc3c(c2)OCO3)cc(OC)c1OC [DMU299] | 0.05 µM | 20 µM | one | – | – | 0.05 µM | 20 µM | AF = activation factor = IC50 MCF7/MCF7 (TCDD) (MCF7 (TCDD)): one; TS = tumour selectivity = IC50 MCF10A/IC50 MDA468 (MDA468; listed as 299): 1 |
| COc1cc(/C=C/c2ccc(I)cc2)cc(OC)c1OC [DMU509] | 15 µM | 13 µM | 1 | 15 µM | 13 µM | – | – | – |
| COc1cc(/C=C\c2ccc(I)cc2)cc(OC)c1OC [DMU510] | 0.06 µM | 0.006 µM | 2 | 0.06 µM | 0.01 µM | – | – | – |
